Test results as given in US20090318446A1, “4-(1H-Indol-3-yl)-Pyrimidin-2-Ylamine Derivatives and Their Use in Therapy” (Cyclacel Limited, priority 2005, published 2009).
pIC50: −log10 of the molar value.

What was measured:
aurora-A = molecular target: T1, aurora-A (Homo sapiens, UniProt O14965); experiment: Aurora-A (human) kinase assay; format: biochemical; settings: Table 3, values without asterisk; read-out: Kinase inhibition Aurora A
T1 construct: purchased Upstate, Dundee, UK
T1 sequence (O14965 1-403): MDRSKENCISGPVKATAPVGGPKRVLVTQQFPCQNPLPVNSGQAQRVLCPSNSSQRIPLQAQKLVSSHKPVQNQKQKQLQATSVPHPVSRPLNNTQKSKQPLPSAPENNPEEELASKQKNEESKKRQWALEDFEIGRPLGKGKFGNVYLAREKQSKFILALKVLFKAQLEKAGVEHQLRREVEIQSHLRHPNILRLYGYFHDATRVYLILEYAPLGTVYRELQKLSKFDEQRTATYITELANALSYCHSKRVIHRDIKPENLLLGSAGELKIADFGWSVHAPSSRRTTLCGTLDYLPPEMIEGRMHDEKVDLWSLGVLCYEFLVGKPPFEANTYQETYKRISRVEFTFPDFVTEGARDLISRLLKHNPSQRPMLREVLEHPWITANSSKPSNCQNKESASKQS
Protocol: (§1) This was achieved by measurement of incorporation of radioactive phosphate from ATP into Kemptide substrate (LRRASLG), upon phosphorylation by commercially obtained aurora-A (human, Upstate, Dundee, UK). Assays were performed using 96-well plates and appropriate assay buffers (20 mM Tris, 25 mM β-glycerophosphate, 5 mM EGTA, 1 mM DTT, 1 mM sodium vanadate, pH 7.5), into which were added 2-5 ng of active enzyme with 500 μM substrate (Kemptide). The reactions were initiated by addition of MgATP mix (15 mM MgCl2+100 μM ATP with 15-25 kBq per well of [γ-^32P]-ATP) and mixtures incubated for 30 min at 30° C. Reactions were stopped by addition of an equal volume of 75 mM aq orthophosphoric acid, followed by filtration through p81 filterplates (Whatman Polyfiltronics, Kent, UK). After washing 4 times with 75 mM aq orthophosphoric acid, plates were dried, scintillant added and incorporated radioactivity measured in a scintillation counter (TopCount, Packard Instruments, Pangbourne, Berks, UK). Compounds for kinase assay were made up as 10 mM stocks in DMSO and diluted into 10% DMSO in assay buffer. Data was analysed using curve-fitting software (XLfit version 4.0.2, IDBS, Guildford, Surrey, UK) to determine IC50 values (concentration of test compound which inhibits kinase activity by 50%).

Mia-PaCa-2 = experiment: MTT cytotoxicity assay, Mia-PaCa-2; format: cell-based; settings: Homo sapiens, after incubation
Protocol: (§2) The compounds of the invention were subjected to a standard cellular proliferation assay using human tumour cell lines obtained from the ATCC (American Type Culture Collection, 10801 University Boulevard, Manessas, Va. 20110-2209, USA). […] C.; Thomas, D. G.; Darling, J. L. Anti Cancer Drugs 1996, 7, 331-8; Loveland, B. E.; Johns, T. G.; Mackay, 1. R.; Vaillant, F.; Wang, Z. X.; Hertzog, P. J. Biochemistry International 1992, 27, 501-10). In short: cells were seeded into 96-well plates according to doubling time and incubated overnight at 37° C. […] MTT was made up as a stock of 5 mg/mL in cell media and filter-sterilised. Media was removed from cells followed by a wash with 200 μL PBS. MTT solution was then added at 20 μL per well and incubated in the dark at 37° C. for 4 h MTT solution was removed and cells again washed with 200 μL PBS. MTT dye was solubilised with 200 μL per well of DMSO with agitation. Absorbance was read at 540 nm and data analysed using curve-fitting software (GraphPad Prism version 3.00 for Windows, GrapbPad Software, San Diego Calif. USA) to determine IC50 values (concentration of test compound which inhibits cell growth by 50%).

A2780 = experiment: MTT cytotoxicity assay, A2780; format: cell-based; settings: Homo sapiens, after incubation
Protocol: as §2

aurora-B = molecular target: T2, aurora-B (Homo sapiens, UniProt Q96GD4); experiment: Aurora-B (human) kinase assay; format: biochemical; settings: Table 3; read-out: Kinase inhibition Aurora B
T2 construct: purchased Upstate, Dundee, UK
T2 sequence (Q96GD4 whole entry): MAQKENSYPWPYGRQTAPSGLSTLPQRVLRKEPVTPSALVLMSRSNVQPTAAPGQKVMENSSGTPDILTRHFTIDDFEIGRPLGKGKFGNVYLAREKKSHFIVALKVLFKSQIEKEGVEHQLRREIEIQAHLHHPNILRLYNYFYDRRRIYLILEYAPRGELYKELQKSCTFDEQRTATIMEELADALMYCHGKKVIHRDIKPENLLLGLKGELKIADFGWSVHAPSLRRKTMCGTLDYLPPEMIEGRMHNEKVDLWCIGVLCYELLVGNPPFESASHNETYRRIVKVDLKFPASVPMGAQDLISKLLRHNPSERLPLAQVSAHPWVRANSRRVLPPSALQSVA
Protocol: as §1, with “obtained aurora-B” for “obtained aurora-A”, “added 75” for “added 2-5”, “of pre-activated” for “of active”, “for 60” for “for 30”
Aurora-B (human, Upstate, Dundee, UK) was pre-activated immediately prior to kinase assay in appropriate buffers (20 mM Tris, 25 mM β-glycerophosphate, 5 mM EGTA, 1 mM DTT, 1 mM sodium vanadate, pH 7.5) by incubating 15 μg of enzyme with 4 μg INCENP (Upstate, Dundee, UK) in the presence of MgATP mix (15 mM MgCl2+100 μM ATP) for 15 min at 30° C.

Row | Structure (SMILES) | pIC50 (aurora-A) | other results
1 | COc1cc(Nc2nccc(-c3c[nH]c4ccccc34)n2)cc(OC)c1 [Compound 14, N-(3,5-dimethoxyphenyl)-4-(1H-indol-3-yl)pyrimidin-2-amine] | 6.25 | –
2 | Cn1cc(-c2ccnc(Nc3ccc(N4CCOCC4)cc3)n2)c2ccccc21 [Compound 15, 4-(1-methyl-1H-indol-3-yl)-N-(4-morpholin-4-ylphenyl)pyrimidin-2-amine] | 6.43 | –
3 | CC(=O)N1CCN(c2ccc(Nc3nccc(-c4cn(C)c5ccccc45)n3)cc2)CC1 [Compound 16, 4-(1-methyl-1H-indol-3-yl)-N-(4-acetylpiperazine-1-ylphenyl)pyrimidin-2-amine] | 6.63 | –
4 | c1ccc2c(-c3ccnc(Nc4ccc5c(c4)OCO5)n3)c[nH]c2c1 [Compound 17, N-1,3-benzodioxol-5-yl-4-(1H-indol-3-yl)pyrimidin-2-amine] | 6.13 | –
5 | O=C(C1CC1)n1cc(-c2ccnc(Nc3ccc(N4CCOCC4)cc3)n2)c2ccccc21 [Compound 18, 4-[1-(cyclopropylcarbonyl)-1H-indol-3-yl]-N-(4-morpholin-4-ylphenyl)pyrimidin-2-amine] | 5.47 | –
6 | CC(=O)n1cc(-c2ccnc(Nc3ccc(N4CCOCC4)cc3)n2)c2ccccc21 [Compound 19, 4-(1-acetyl-1H-indol-3-yl)-N-(4-morpholin-4-ylphenyl)pyrimidin-2-amine] | 5.66 | –
7 | CN1CCN(c2ccc(Nc3nccc(-c4c[nH]c5ccccc45)n3)cc2)CC1 [Compound 20, 4-(1H-indol-3-yl)-N-(4-methylpiperazin-1-ylphenyl)pyrimidin-2-amine] | 6.36 | –
8 | COc1cccc2c(-c3ccnc(Nc4ccc(N5CCN(C(C)=O)CC5)cc4)n3)c[nH]c12 [Compound 21, 4-(7-methoxy-1H-indol-3-yl)-N-(4-acetylpiperazin-1-ylphenyl)pyrimidin-2-amine] | 6.63 | pIC50 (Mia-PaCa-2): 5.98
9 | COc1ccc2c(-c3ccnc(Nc4ccc(N5CCN(C(C)=O)CC5)cc4)n3)c[nH]c2c1 [Compound 24] | 6.68 | pIC50 (Mia-PaCa-2): 6.14; pIC50 (A2780): 6.24
10 | CC(=O)N1CCN(c2ccc(Nc3nccc(-c4c[nH]c5c(Cl)cccc45)n3)cc2)CC1 [Compound 25] | 6.25 | –

Now from value to molecule, other results behind:

Row | pIC50 (aurora-A) | Structure (SMILES) | other results
11 | 6.71 | CC(=O)N1CCN(c2ccc(Nc3nccc(-c4c[nH]c5cc(F)ccc45)n3)cc2)CC1 [Compound 26] | pIC50 (aurora-B): 6.76
12 | 6.56 | CC(=O)N1CCN(c2ccc(Nc3nccc(-c4c[nH]c5ccccc45)n3)cc2C)CC1 [Compound 27, 4-(1H-indol-3-yl)-N-[(4-acetylpiperazin-1-yl)-3-methylphenyl]pyrimidin-2-amine] | pIC50 (aurora-B): 6.44
13 | 6.07 | Cc1cc(Nc2nccc(-c3c[nH]c4ccccc34)n2)ccc1N1CCSCC1 [Compound 28, 4-(1H-indol-3-yl)-N-(3-methyl-4-thiomorpholin-4-ylphenyl)pyrimidin-2-amine] | pIC50 (aurora-B): 6.20
14 | 6.41 | C[C@@H]1CN(c2ccc(Nc3nccc(-c4c[nH]c5ccccc45)n3)cc2)C[C@H](C)O1 [Compound 29, 4-(1H-indol-3-yl)-N-[(2R,6S)-2,6-dimethylmorpholin-4-ylphenyl]pyrimidin-2-amine] | –
15 | 5.90 | C[C@H]1CN(c2ccc(Nc3nccc(-c4c[nH]c5ccccc45)n3)cc2)C[C@H](C)O1 [Compound 30, 4-(1H-indol-3-yl)-N-[(2S,6S)-2,6-dimethylmorpholin-4-ylphenyl]pyrimidin-2-amine] | –
16 | 5.35 | CC1CC(C)CN(c2ccc(Nc3nccc(-c4c[nH]c5ccccc45)n3)cc2)C1 (stereo not shown) [Compound 31, 4-(1H-indol-3-yl)-N-(3,5-dimethylpiperidin-1-ylphenyl)pyrimidin-2-amine] | –
